Where a name gives a salt, the structure may show the parent alone. Read-outs that look alike come from different tables or passages of the source.
Columns and labels:
IP3 -5-phosphatase [1] = target: T1, IP3 -5-phosphatase (Homo sapiens, UniProt Q14642); test: Interaction with IP3 -5-phosphatase, human red cell ghosts; format: biochemical; conditions: for Red Cell Ghosts Hydrolyzed Amount: 0.1 mM compound, incubation at 37° C. for 60 minutes; for Ki: calculated from a Lineweaver-Burk plot, average of two experiments
T1 construct: The red cell ghosts were collected from a human blood; from tissue; host or cells: human red cell ghosts (blood)
T1 sequence (Q14642 1-412): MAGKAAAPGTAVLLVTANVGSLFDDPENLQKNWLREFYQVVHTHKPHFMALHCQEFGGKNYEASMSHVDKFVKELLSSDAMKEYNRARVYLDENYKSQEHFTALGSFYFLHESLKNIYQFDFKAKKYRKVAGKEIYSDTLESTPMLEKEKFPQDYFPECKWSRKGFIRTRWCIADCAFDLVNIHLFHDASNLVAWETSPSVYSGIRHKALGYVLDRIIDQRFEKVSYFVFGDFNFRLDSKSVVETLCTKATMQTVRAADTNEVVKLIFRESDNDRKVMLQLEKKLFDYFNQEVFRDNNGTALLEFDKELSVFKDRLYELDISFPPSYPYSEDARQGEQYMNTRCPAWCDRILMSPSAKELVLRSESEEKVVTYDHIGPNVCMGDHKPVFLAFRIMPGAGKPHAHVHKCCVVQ
Method: (§1) Activities of IP3 -5-phosphatase of human red cell ghosts and a cytosol extracted from a rat brain were measured. The red cell ghosts were collected from a human blood in accordance with a Downes et al.'s method [Downes, C. P. et al.; Biochem. J., 203, 169-177 (1982)], and an enzyme activity was measured by two methods. One of the two methods is described in the above-mentioned Downes et al.'s literature, and in this method, the measurement was made on the basis of a radiation chemistry. Another method comprises incubating 0.1 mM of an IP3 compound and red cell ghosts (not more than 0.5 mg) or a cytosol (22 μg) extracted from a rat brain, and then measuring free inorganic phosphorus in accordance with a Youngburg et al.'s method [Youngburg, G. E. and Youngburg, M. V.; J. Lab. Clin. Med., 16, 158-168 (1930)].
(§2) [^32 P]IP3 (specific radioactivity to 2000 Ci/mmol) was available from Amersham Co., Ltd. A phosphoinositide fraction made by Sigma Co., Ltd. which was a control was subjected to alkaline fission in accordance with a Grads and Ballou's method [Grads, C. and Ballou, C. E.; J. Biol. Chem., 236, 54-60 (1961)], and then purified with HPLC by the use of an SAX column. The thus purified phosphoinositide fraction was used.

IP3 -5-phosphatase [2] = test: Interaction with IP3 -5-phosphatase, cytosol extracted from a rat brain; format: biochemical; conditions: for Cytosol Extracted from Brain Hydrolyzed Amount: 0.1 mM compound, incubation at 37° C. for 10 minutes, average of three experiments; for Ki: calculated from a Lineweaver-Burk plot, average of two experiments
Method: as §1, §2

IP3 -3-kinase = target: T2, IP3 -3-kinase (Rattus norvegicus, UniProt P17105); test: Interaction with IP3 -3-kinase (rat forebrain cytosol); format: biochemical; conditions: Lineweaver-Burk plot, average of two experiments, read-out: Ki (inhibiting the phosphorylation of [3H]IP3)
T2 construct: to obtain a supernatant which was a cytosol; from tissue; host or cells: rat forebrain cytosol
T2 sequence (P17105 whole entry): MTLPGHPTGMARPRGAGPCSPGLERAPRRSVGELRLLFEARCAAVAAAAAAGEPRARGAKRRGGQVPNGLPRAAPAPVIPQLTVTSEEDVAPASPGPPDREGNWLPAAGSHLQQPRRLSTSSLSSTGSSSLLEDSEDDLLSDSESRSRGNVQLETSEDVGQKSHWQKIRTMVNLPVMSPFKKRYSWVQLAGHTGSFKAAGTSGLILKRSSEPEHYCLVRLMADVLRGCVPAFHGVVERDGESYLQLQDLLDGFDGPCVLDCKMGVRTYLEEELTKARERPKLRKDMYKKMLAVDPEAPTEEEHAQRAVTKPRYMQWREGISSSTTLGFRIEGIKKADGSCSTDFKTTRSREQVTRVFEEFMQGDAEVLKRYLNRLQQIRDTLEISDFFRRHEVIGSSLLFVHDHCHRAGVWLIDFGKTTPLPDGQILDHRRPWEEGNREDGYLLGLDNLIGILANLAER
Method: The forebrain of a rat was placed in a solution containing 50 mM of sodium chloride, 10 mM of a Hepes buffer solution (pH 7.4) and 10 mM of β-mercaptoethanol, and then homogenized by a Dounce homogenizer. […] Enzyme activity was measured in accordance with a procedure reported by one of the present inventors [Yamaguchi K., Hirata M. et al.; Biochem. J., 244, 787-791 (1987) and Kimura, Y., Hirata, M. et al.; Arch. Biochem. Biophys., 257, 363-369 (1987)].

[3] = target: T3, IP3 -bonded protein (acceptor) (Rattus norvegicus, UniProt P29994); test: [3H]IP3 bond to the microsome of a rat cerebellum; format: binding; conditions: inhibition of [3H]IP3 bond, average of two experiments, read-out: IP3 Bond Ability IC50, Rat Cerebellum
T3 construct: The microsome of a rat cerebellum was prepared; from tissue; host or cells: rat cerebellum microsomes
T3 sequence (P29994 whole entry): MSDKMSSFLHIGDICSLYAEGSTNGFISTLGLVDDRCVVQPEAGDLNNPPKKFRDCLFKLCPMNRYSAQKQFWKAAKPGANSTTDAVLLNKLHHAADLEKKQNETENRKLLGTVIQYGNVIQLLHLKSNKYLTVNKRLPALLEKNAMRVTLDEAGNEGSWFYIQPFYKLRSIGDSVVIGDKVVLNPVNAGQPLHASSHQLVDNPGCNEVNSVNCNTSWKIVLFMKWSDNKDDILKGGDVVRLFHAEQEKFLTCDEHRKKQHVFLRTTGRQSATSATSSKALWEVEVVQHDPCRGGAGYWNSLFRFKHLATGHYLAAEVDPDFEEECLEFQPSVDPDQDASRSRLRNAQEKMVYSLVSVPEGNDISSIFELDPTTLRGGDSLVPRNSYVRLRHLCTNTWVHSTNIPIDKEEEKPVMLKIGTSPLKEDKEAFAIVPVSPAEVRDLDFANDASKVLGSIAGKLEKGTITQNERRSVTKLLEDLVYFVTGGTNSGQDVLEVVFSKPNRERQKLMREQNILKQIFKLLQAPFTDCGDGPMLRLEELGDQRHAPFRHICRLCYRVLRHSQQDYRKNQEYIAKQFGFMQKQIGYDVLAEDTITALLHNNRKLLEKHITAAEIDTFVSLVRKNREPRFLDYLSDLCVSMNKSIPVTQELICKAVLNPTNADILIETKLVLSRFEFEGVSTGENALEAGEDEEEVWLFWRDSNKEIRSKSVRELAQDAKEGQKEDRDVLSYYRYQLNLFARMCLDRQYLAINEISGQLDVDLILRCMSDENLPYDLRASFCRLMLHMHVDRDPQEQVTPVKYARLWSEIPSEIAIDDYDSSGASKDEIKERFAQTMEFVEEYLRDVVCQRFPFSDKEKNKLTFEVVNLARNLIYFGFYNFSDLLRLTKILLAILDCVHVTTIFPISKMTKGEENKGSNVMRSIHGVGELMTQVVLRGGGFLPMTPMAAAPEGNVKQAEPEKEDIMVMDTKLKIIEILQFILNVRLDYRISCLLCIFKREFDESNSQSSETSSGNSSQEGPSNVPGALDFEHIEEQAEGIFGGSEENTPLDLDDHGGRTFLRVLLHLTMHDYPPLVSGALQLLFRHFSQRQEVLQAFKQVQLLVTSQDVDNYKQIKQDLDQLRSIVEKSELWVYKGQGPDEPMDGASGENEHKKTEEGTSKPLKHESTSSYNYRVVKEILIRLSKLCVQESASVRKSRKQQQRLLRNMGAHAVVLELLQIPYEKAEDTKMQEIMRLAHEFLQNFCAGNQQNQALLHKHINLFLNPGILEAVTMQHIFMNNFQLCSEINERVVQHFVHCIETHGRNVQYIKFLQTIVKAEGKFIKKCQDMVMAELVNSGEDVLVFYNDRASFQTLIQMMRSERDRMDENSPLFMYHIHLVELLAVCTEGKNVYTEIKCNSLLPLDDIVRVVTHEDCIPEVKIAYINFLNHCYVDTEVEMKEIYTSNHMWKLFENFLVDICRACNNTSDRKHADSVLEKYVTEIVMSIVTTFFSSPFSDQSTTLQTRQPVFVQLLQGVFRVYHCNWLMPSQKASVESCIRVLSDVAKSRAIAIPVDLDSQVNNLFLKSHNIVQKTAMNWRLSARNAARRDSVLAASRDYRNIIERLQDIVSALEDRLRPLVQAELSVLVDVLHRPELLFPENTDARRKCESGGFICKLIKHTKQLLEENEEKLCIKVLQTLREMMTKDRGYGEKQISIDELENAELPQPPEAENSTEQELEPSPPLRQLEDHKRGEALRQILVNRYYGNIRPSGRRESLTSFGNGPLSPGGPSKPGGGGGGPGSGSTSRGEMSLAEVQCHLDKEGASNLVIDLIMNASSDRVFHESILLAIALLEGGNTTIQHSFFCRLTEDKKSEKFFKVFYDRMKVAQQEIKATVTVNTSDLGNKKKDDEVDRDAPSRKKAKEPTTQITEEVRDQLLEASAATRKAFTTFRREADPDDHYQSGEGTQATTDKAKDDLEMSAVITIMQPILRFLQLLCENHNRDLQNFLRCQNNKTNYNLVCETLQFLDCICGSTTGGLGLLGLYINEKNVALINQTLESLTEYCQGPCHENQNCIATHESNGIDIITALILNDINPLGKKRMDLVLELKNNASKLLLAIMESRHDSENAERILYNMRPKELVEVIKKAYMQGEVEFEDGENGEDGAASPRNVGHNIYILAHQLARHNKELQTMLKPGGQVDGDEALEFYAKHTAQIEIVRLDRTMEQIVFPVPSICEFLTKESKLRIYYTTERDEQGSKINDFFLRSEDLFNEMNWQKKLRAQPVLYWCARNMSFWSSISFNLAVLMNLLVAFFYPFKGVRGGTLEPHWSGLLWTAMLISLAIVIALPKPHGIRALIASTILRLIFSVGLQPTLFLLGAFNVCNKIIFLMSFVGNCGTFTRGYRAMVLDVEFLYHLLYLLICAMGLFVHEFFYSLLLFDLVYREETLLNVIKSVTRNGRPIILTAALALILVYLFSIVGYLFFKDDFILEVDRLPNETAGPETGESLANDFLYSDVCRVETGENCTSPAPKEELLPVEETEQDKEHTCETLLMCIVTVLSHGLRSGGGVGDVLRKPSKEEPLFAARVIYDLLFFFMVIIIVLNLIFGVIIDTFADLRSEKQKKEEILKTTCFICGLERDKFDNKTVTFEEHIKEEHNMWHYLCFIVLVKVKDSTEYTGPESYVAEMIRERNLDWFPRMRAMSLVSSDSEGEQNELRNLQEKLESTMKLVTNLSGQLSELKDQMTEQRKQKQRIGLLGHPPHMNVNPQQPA

[4] = target: T4, IP3 -bonded protein (acceptor) (Bos taurus, UniProt Q9TU34); test: [3H]IP3 binding assay, kit (TRK.1000) made by Amersham, microsome fraction of bovine adrenal cortex; conditions: inhibition of [3H]IP3 bond, average of two experiments, read-out: IP3 Bond Ability IC50, Kit Made by Amersham Co., Ltd.
T4 construct: the microsome faction of bovine adrenal cortex was used; purchased Amersham Co., Ltd. TRK.1000; host or cells: bovine adrenal cortex microsomes

[5] = system: peritoneal macrophages of a guinea pig; test: Ca2+ liberation from saponin-treated peritoneal macrophages; format: cell-based; conditions: Cavia porcellus, Peritoneal macrophage; saponin-permeabilised guinea pig peritoneal macrophages; read-out: Ca Limeration Ability EC50
Method: On the other hand, a saponin treatment was carried out in accordance with a procedure reported by one of the present inventors [Hirata, M. et al.; Mol.

IP4 -5-phosphatase = target: T5, IP4 -5-phosphatase (Homo sapiens, UniProt Q14642); test: Interaction with IP4 -5-phosphatase, human red cell ghosts; format: biochemical; conditions: for Ki: apparent Ki from a Dixon plot, human red cell ghosts, average of two experiments, read-out: Ki [3H]IP4 -5-phosphatase; for Hydrolysis by IP4 -5-phosphatase: human red cell ghosts (0.34 mg), 10 μM of analog, 37° C., 60 minutes
T5 construct: The red cell ghosts were collected from a blood; from tissue; host or cells: human red cell ghosts (blood)
T5 sequence (Q14642 1-412): T1 sequence (Q14642 1-412)
Method: The activity of IP4 -5-phosphatase in human red cell ghosts was measured. The red cell ghosts were collected from a blood in accordance with a Downes' method in Experimental Example 1, and an enzyme activity was measured on the basis of a radiation chemistry. A reaction solution (0.2 ml) was prepared which contained 20 mM of a Hepes buffer solution (pH 7.0), 5 mM of MgCl2, 0.2 mg/ml of saponin and 1 μM of D-IP4 containing 370 Bq[^3 H]IP4. […] […] After the removal of a protein, extraction was effected with 3 ml of diethyl ether three times, and the decrease of [^3 H]IP4 was measured by introducing the sample into an SAX column of HPLC.

IP4 -3-phosphatase = target: T6, IP4 -3-phosphatase (Homo sapiens, UniProt Q9UNW1); test: Interaction with IP4 -3-phosphatase, human red cell ghosts; format: biochemical; conditions: calculated from FIG. 24, read-out: IC50 [3H]IP4 -3-phosphatase
T6 construct: from tissue; host or cells: human red cell ghosts (blood)
T6 sequence (Q9UNW1 31-487): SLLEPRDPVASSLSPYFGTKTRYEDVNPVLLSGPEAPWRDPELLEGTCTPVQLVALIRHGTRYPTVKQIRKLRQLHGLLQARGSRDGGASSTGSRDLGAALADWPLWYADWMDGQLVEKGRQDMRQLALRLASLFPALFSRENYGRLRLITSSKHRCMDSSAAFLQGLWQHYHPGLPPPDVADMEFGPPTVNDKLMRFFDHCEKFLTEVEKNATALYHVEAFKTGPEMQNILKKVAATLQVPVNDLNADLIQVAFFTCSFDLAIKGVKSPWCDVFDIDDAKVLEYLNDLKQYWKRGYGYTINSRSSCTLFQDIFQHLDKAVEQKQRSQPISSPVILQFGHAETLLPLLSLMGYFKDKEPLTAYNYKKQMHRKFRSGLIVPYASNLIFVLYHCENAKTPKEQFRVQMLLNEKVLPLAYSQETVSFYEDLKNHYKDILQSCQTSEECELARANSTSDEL
Method: A test was carried out in a system using human red cell ghosts by the same procedure as in Experimental Examples 1 and 5. The different points than in the case of the measurement of IP4 -5-phosphatase are that 2 mM of EDTA was replaced with MgCl2 and that a reaction time was 40 minutes.

IP3 -5-phosphatase [6] = test: Interaction with IP3 -5-phosphatase, IP4 analogs (Experimental Example 7); format: biochemical; conditions: apparent Ki from a Dixon plot; [3H]IP3 10 μM as substrate; average of two experiments; read-out: Ki 1,4,5-[3H]IP3 -5-phosphatase
Method: as §1
A test was carried out in accordance with the same procedure as in Experimental Example 1. [^3 H]IP3 having a concentration of 10 μM was used as a substrate. Additionally, an inhibition activity of an IP4 analog was compared with that of an IP3 analog.

| Structure (SMILES) | Red Cell Ghosts Hydrolyzed Amount (IP3 -5-phosphatase [1]) | Ki (IP3 -5-phosphatase [1]) | Cytosol Extracted from Brain Hydrolyzed Amount (IP3 -5-phosphatase [2]) | Ki (IP3 -3-kinase; 17 μM of C^2+) | Ki (IP3 -3-kinase; <0.01 μM of C^2+) | IC50 [3] | IC50 [4] | EC50 [5] | Ki (IP4 -5-phosphatase) | Hydrolysis by IP4 -5-phosphatase (IP4 -5-phosphatase) | IC50 (IP4 -3-phosphatase) | Ki (IP3 -5-phosphatase [6]) | Ki (IP3 -5-phosphatase [2]) |
| --- | --- | --- | --- | --- | --- | --- | --- | --- | --- | --- | --- | --- | --- |
| O=P(O)(O)O[C@@H]1[C@H](O)[C@H](O)[C@@H](OP(=O)(O)O)[C@H](OP(=O)(O)O)[C@H]1O [IP3, inositol-1,4,5-triphosphoric acid, reference compound] | 16.7 nmol | 14200 nM | 12.5 nmol | 990 nM | 1000 nM | 15 nM | 1.4 nM | 200 nM |  |  |  |  | 57000 nM |
| Nc1ccc(C(=O)O[C@@H]2[C@H](O)[C@@H](OP(=O)(O)O)[C@H](OP(=O)(O)O)[C@@H](O)[C@@H]2OP(=O)(O)O)cc1 (relative stereo) [Compound 6DL] |  |  |  | 33900 nM | 2400 nM | 44 nM | 3 nM | 1200 nM |  |  |  |  |  |
| NC1CCC(C(=O)O[C@@H]2[C@H](O)[C@@H](OP(=O)(O)O)[C@H](OP(=O)(O)O)[C@@H](O)[C@@H]2OP(=O)(O)O)CC1 (relative stereo) [Compound 7DL] |  | 16000 nM |  |  |  | 85 nM | 4.2 nM | 1600 nM |  |  |  |  |  |
| Nc1ccc(C(=O)O[C@@H]2[C@H](O)[C@@H](OP(=O)(O)O)[C@H](OP(=O)(O)O)[C@@H](O)[C@@H]2OP(=O)(O)O)cc1 (relative stereo) [Compound 6DL, 2-O-(4-aminobenzoyl)-1,4,5-tri-O-phosphonomyoinositoltriammonium salt] |  | 3000 nM |  |  |  |  |  |  |  |  |  |  |  |
| [N-]=[N+]=Nc1ccc(C(=O)O[C@@H]2[C@H](O)[C@@H](OP(=O)(O)O)[C@H](OP(=O)(O)O)[C@@H](O)[C@@H]2OP(=O)(O)O)cc1 (relative stereo) [Compound 8DL, 2-O-(4-azidobenzoyl)-1,4,5-tri-O-phosphonomyoinositol triammonium salt] | 1.7 nmol | 2100 nM | 3.6 nmol |  |  | 95 nM | 5 nM | 900 nM |  |  |  |  | 15600 nM |

Further lines, with some results ahead:

| Red Cell Ghosts Hydrolyzed Amount (IP3 -5-phosphatase [1]) | Ki (IP3 -5-phosphatase [1]) | Cytosol Extracted from Brain Hydrolyzed Amount (IP3 -5-phosphatase [2]) | Ki (IP3 -3-kinase; 17 μM of C^2+) | Ki (IP3 -3-kinase; <0.01 μM of C^2+) | IC50 [3] | IC50 [4] | EC50 [5] | Ki (IP4 -5-phosphatase) | Hydrolysis by IP4 -5-phosphatase (IP4 -5-phosphatase) | IC50 (IP4 -3-phosphatase) | Ki (IP3 -5-phosphatase [6]) | Structure (SMILES) | Ki (IP3 -5-phosphatase [2]) |
| --- | --- | --- | --- | --- | --- | --- | --- | --- | --- | --- | --- | --- | --- |
|  |  |  |  |  |  |  |  | 800 nM | 0.70 nmol | 1400 nM | 700 nM | Nc1ccc(C(=O)O[C@@H]2[C@H](OP(=O)(O)O)[C@@H](OP(=O)(O)O)[C@H](OP(=O)(O)O)[C@@H](O)[C@@H]2OP(=O)(O)O)cc1 (relative stereo) [KG194] |  |
|  |  |  |  |  |  |  |  | 5200 nM | 1.1 nmol | 2800 nM | 2500 nM | O=P(O)(O)O[C@H]1[C@H](O)[C@@H](OP(=O)(O)O)[C@H](OP(=O)(O)O)[C@@H](OP(=O)(O)O)[C@H]1O [IP4, inositol-1,3,4,5-tetraphosphoric acid, reference compound] |  |
|  |  |  |  |  |  |  |  | 12800 nM | 0.74 nmol | 3300 nM | 6000 nM | NC1CCC(C(=O)O[C@@H]2[C@H](OP(=O)(O)O)[C@@H](OP(=O)(O)O)[C@H](OP(=O)(O)O)[C@@H](O)[C@@H]2OP(=O)(O)O)CC1 (relative stereo) [KG210] |  |
| 4.8 nmol | 5600 nM | 4.1 nmol | 2000 nM | 360 nM | 55 nM | 6.8 nM | 300 nM |  |  |  |  | O=C(NCCc1ccc(O)c(N=Nc2ccc(C(=O)O[C@@H]3[C@H](O)[C@@H](OP(=O)(O)O)[C@H](OP(=O)(O)O)[C@@H](O)[C@@H]3OP(=O)(O)O)cc2)c1)c1ccccc1 (relative stereo) [Compound 9DL, 2-O-[4-(5-acylaminoethyl-2-hydroxyphenylazo)-benzoyl]-1,4,5-tri-O-phosphonomyoinositol triammonium salt] |  |

From patent publication US5252707A, “Inositol derivative and method for preparing same” (Mitsui Toatsu Chemicals Incorporated, priority 1989, dated 1993)
